Source: US9115073B2, “1,3-diphenylpropane derivatives, preparations and uses thereof” (GENFIT, priority 2011, dated 2015)
pEC50: −log10 of the molar value.

Legend:
db/db mice = test: Diabetes model (db/db mice): non-fasting glycemia and HbA1c; type: in vivo, mouse
Experimental: Diabetes Model (db/db Mice)
The male db/db mice (8 to 9 week-old) were purchased from CERJ JANVIER (Le Genest Saint Isle, France). Animal care and handling was performed according to the Declaration of Helsinki and was approved by the local ethics committees. The animals were kept under a 12 hour light/dark standard light cycle and had free access to water and food. Animals were fed standard rodent chow diet (A03 SAFE, Augy, France). Mice were randomly assigned into different treatment groups, weighed and dosed by oral gavage (10 ml/kg body weight) once daily in the morning, either with the vehicle or with the compound. The vehicle used was 0.1% Tween 80 (Polyoxyethylenesorbitan monooleate) and 1% carboxymethylcellulose in 98.9% distilled water. The entire treatment protocol took 37 days. Non-fasting glycemia was measured at 8 A.M. with the Smart Check blood glucose monitoring system, in mice that have had unrestricted access to food and water throughout the night. The blood concentration of the glycosylated hemoglobin A1c was determined using the Randox kit for Daytona automate (Randox, cat# HA 3830) according to the manufacturer's recommendations. The HbA1c result was calculated as a percentage of the total hemoglobin concentration.

hPPARalpha = biological target: T1, hPPARalpha (Homo sapiens, UniProt Q07869); test: Gal4-hPPARalpha transactivation assay in COS-7 cells (luciferase); type: cell-based
T1 construct: Gal4-hPPARα(LBD); Gal4 (fusion partner); expressed in transfected cells; host or cells: COS-7 (monkey kidney)
T1 sequence (Q07869 239-466 limits assumed): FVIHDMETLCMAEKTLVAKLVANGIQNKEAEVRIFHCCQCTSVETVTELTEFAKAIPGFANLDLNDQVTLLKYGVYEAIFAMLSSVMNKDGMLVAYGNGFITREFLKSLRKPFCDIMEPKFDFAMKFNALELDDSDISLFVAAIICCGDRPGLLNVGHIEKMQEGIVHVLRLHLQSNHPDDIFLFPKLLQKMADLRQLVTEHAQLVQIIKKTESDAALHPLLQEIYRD
Method in brief: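 COS-7 cells transiently co-transfected with Gal4-hPPAR chimeras and a Gal4(RE)_TkpGL3 luciferase reporter (1/50 ratio) were seeded at 20,000 cells/well for 4 h, then treated in 2% lipid-free synthetic serum medium (0.1% DMSO). EC50 and Hill slope came from fitted luciferase curves. Emax is relative to fenofibrate 100 μM (α), rosiglitazone 10 μM (γ) or GW501516 1 μM (δ).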

[1] = test system: brain amyloid-beta levels; test: Alzheimer's disease model (APPPS1 mice): brain amyloid-beta levels by ELISA; type: in vivo, mouse; conditions: 60 days, +/- standard deviation
APPPS1 mice = test: Alzheimer's disease model (APPPS1 mice): Morris-Water-Maze test; type: in vivo, mouse; conditions: 60 days, +/- standard deviation
[2] = treated group, start of study period

pEC50 (hPPARalpha; Gal4-hPPARα(LBD) transactivation): 7.92
Gal4-hPPARα(LBD) TOP (% ref) (hPPARalpha; maximal relative activation vs reference, listed as cpd 14-1-2): 46 % ref
Structure (SMILES): COC(c1ccc(OC(F)(F)F)cc1)C1CC1c1cc(C)c(OC(C)(C)C(=O)O)c(C)c1 (single isomer, unassigned) [Cpd 14-1-2, 2-(4-(2-(methoxy(4-(trifluoromethoxy)phenyl)methyl)cyclopropyl)-2,6-dimethylphenoxy)-2-methylpropanoic acid]
Non-fasting glycemia (db/db mice; 3 mg per kg per day by gavage, day 30): 146 mg/dL
glycated hemoglobin (HbA1c) (db/db mice; 3 mg per kg per day by gavage, day 37): 4.12%
decrease of non-fasting glycemia during the study period (db/db mice; 3 mg per kg per day by gavage, start to day 30): 48%
change in HbA1c during the study period (db/db mice; 3 mg per kg per day by gavage, start to day 37): no significant change
non-fasting glycemia lower as compared to untreated controls (db/db mice; 3 mg per kg per day, day 30, t-test p-value <0.0001): 60%
HbA1c lower as compared to the diabetic controls (db/db mice; 3 mg per kg per day, day 37, t-test p-value <0.01): 28%
Non-fasting glycemia (db/db mice; [2]): 258 mg/dL
glycated hemoglobin (HbA1c) (db/db mice; [2]): 4.16%
amyloid-beta peptide Aβ 1-38, mean reduction from untreated APPPS1 mice ([1]; 1 mpk per day): 76 % +/− 16 % (**)
amyloid-beta peptide Aβ 1-40, mean reduction from untreated APPPS1 mice ([1]; 1 mpk per day): 55 % +/− 17 % (**)
amyloid-beta peptide Aβ 1-42, mean reduction from untreated APPPS1 mice ([1]; 1 mpk per day): 56 % +/− 19 % (**)
amyloid-beta peptide Aβ 1-38, mean reduction from untreated APPPS1 mice ([1]; 10 mpk per day): 97 % +/− 3 % (**)
amyloid-beta peptide Aβ 1-40, mean reduction from untreated APPPS1 mice ([1]; 10 mpk per day): 72 % +/− 14 % (**)
amyloid-beta peptide Aβ 1-42, mean reduction from untreated APPPS1 mice ([1]; 10 mpk per day): 74 % +/− 14 % (**)
Morris-Water maze distance, mean reduction from untreated APPPS1 mice (APPPS1 mice; 1 mpk per day): 22.6 % +/− 21% (*)
Morris-Water maze latency, mean reduction from untreated APPPS1 mice (APPPS1 mice; 1 mpk per day): 45.6 % +/− 16 % (**)
Morris-Water maze distance, mean reduction from untreated APPPS1 mice (APPPS1 mice; 10 mpk per day): 31.1 % +/− 18 % (**)
Morris-Water maze latency, mean reduction from untreated APPPS1 mice (APPPS1 mice; 10 mpk per day): 39.9 % +/− 20 % (**)
